Experiment: Ability to inhibit expression of Vascular cell adhesion molecule 1

SMILES | IC50
CCOC(=O)C1CCN(S(=O)(=O)c2ccc(Cl)c([N+](=O)[O-])c2)CC1 [1-(4-Chloro-3-nitro-benzenesulfonyl)-piperidine-4-carboxylic acid ethyl ester] | 8 µM
CN(CCCCCCN(C)S(=O)(=O)c1ccc(Cl)c([N+](=O)[O-])c1)S(=O)(=O)c1ccc(Cl)c([N+](=O)[O-])c1 [1N-{6-[4-chloro-3-nitrophenyl(methyl)sulfonamido]hexyl}-1N-methyl-4-chloro-3-nitro-1-benzenesulfonamide] | 30 µM
N#Cc1cc([N+](=O)[O-])ccc1Cl [2-Chloro-5-nitro-benzonitrile] | 17 µM
N#Cc1cc([N+](=O)[O-])cc([N+](=O)[O-])c1 [3,5-Dinitro-benzonitrile] | 10 µM
N#Cc1cc([N+](=O)[O-])c(Cl)c([N+](=O)[O-])c1 [4-Chloro-3,5-dinitro-benzonitrile] | 20 µM
CCCN(CCC)S(=O)(=O)c1ccc(Cl)c([N+](=O)[O-])c1 [4-Chloro-3-nitro-N,N-dipropyl-benzenesulfonamide] | 9 µM
O=Cc1ccc(Cl)c([N+](=O)[O-])c1 [4-Chloro-3-nitro-benzaldehyde] | 15 µM
NS(=O)(=O)c1ccc(Cl)c([N+](=O)[O-])c1 [4-Chloro-3-nitro-benzenesulfonamide] | 40 µM
N#Cc1ccc(Cl)c([N+](=O)[O-])c1 [4-Chloro-3-nitro-benzonitrile] | 11 µM
O=[N+]([O-])c1cc(S(=O)(=O)N(CCO)CCO)ccc1Cl [4-Chloro-N,N-bis-(2-hydroxy-ethyl)-3-nitro-benzenesulfonamide] | 19 µM
CC(C)N(C(C)C)S(=O)(=O)c1ccc(Cl)c([N+](=O)[O-])c1 [4-Chloro-N,N-diisopropyl-3-nitro-benzenesulfonamide] | 10 µM
CN(C)S(=O)(=O)c1ccc(Cl)c([N+](=O)[O-])c1 [4-Chloro-N,N-dimethyl-3-nitro-benzenesulfonamide] | 10 µM
CCNS(=O)(=O)c1ccc(Cl)c([N+](=O)[O-])c1 [4-Chloro-N-ethyl-3-nitro-benzenesulfonamide] | 15 µM
CCN(C(C)C)S(=O)(=O)c1ccc(Cl)c([N+](=O)[O-])c1 [4-Chloro-N-ethyl-N-isopropyl-3-nitro-benzenesulfonamide] | 15 µM
CCN(C)S(=O)(=O)c1ccc(Cl)c([N+](=O)[O-])c1 [4-Chloro-N-ethyl-N-methyl-3-nitro-benzenesulfonamide] | 10 µM
CNS(=O)(=O)c1ccc(Cl)c([N+](=O)[O-])c1 [4-Chloro-N-methyl-3-nitro-benzenesulfonamide] | 11 µM
O=C(c1ccccc1)c1ccc(Cl)c([N+](=O)[O-])c1 [(4-Chloro-3-nitro-phenyl)-phenyl-methanone] | 15 µM
O=C(c1ccc(Cl)c([N+](=O)[O-])c1)c1ccc(Cl)c([N+](=O)[O-])c1 [Bis-(4-chloro-3-nitro-phenyl)-methanone] | 5 µM
CCCCN(CCCC)S(=O)(=O)c1ccc(Cl)c([N+](=O)[O-])c1 [N,N-Dibutyl-4-chloro-3-nitro-benzenesulfonamide] | 10 µM
O=[N+]([O-])c1cc(S(=O)(=O)NCc2ccccc2)ccc1Cl [N-Benzyl-4-chloro-3-nitro-benzenesulfonamide] | 18 µM

Second part, the compound after the results:

IC50 | SMILES
8 µM | CN1CCN(S(=O)(=O)c2ccc(Cl)c([N+](=O)[O-])c2)CC1 [1-(4-Chloro-3-nitro-benzenesulfonyl)-4-methyl-piperazine]
4 µM | O=[N+]([O-])c1cc(S(=O)(=O)N2CCCC2)ccc1Cl [1-(4-Chloro-3-nitro-benzenesulfonyl)-pyrrolidine]
7 µM | O=[N+]([O-])c1cc(S(=O)(=O)c2ccc(F)c([N+](=O)[O-])c2)ccc1F [1-fluoro-4-[(4-fluoro-3-nitrophenyl)sulfonyl]-2-nitrobenzene]
6 µM | CN(CCCN(C)S(=O)(=O)c1ccc(Cl)c([N+](=O)[O-])c1)S(=O)(=O)c1ccc(Cl)c([N+](=O)[O-])c1 [1N-{3-[4-chloro-3-nitrophenyl(methyl)sulfonamido]propyl}-1N-methyl-4-chloro-3-nitro-1-benzenesulfonamide]
5 µM | N#Cc1ccc(Cl)cc1[N+](=O)[O-] [4-Chloro-2-nitro-benzonitrile]
7 µM | CCCCCN(CCCCC)S(=O)(=O)c1ccc(Cl)c([N+](=O)[O-])c1 [4-Chloro-3-nitro-N,N-dipentyl-benzenesulfonamide]
5 µM | COCCN(CCOC)S(=O)(=O)c1ccc(Cl)c([N+](=O)[O-])c1 [4-Chloro-N,N-bis-(2-methoxy-ethyl)-3-nitro-benzenesulfonamide]
3 µM | CCN(CC)S(=O)(=O)c1ccc(Cl)c([N+](=O)[O-])c1 [4-Chloro-N,N-diethyl-3-nitro-benzenesulfonamide]
5 µM | COC(=O)c1ccc(S(C)(=O)=O)c([N+](=O)[O-])c1 [4-Methanesulfonyl-3-nitro-benzoic acid methyl ester]
